Data from patent US9187449B2, “Compounds with increased specificity for the treatment of glioma” (University of Tennessee Research Foundation, priority 2013, dated 2015).
Counter-ions that a name gives are not always drawn. Like-named read-outs stand apart in the source and are kept apart here.

Legend:
Assay type in all cases: cell-based
U87 = test: MTT cell viability assay, U87 glioma cells; conditions: human glioma cell line U87, five days exposure, mean of triplicate experiments, read-out: Mean IC50 ± SD, U87
Text: (§1) The synthesized THI analogs were screened for their efficacy against established human glioma cell lines using the MTT colorimetric assay. This assay measures cell viability by quantitating purple formazan crystal formation caused by the reduction of tetrazolium salts in metabolically active cells. The inventors performed a series of experiments to determine the best concentration range for each compound to generate a half-maximal inhibitory concentration (IC50). The IC50 value for each compound represents the mean of triplicate experiments. Primary astrocytes established from the cortices of normal mouse pups were used as the model system to represent the degree of toxicity that would be expected in normal astrocytes in the human brain. The glioma cells and normal astrocytes were exposed to escalating concentrations of each THI compound for five days and then subjected to the MTT assay. Cell viability data at each concentration was used to calculate IC50 values.

T98G = test: MTT cell viability assay, T98G glioma cells; conditions: human glioma cell line T98G, five days exposure, mean of triplicate experiments, read-out: Mean IC50 ± SD, T98G
Text: as §1

Normal astrocytes = test: MTT cell viability assay, normal primary astrocytes (toxicity model); conditions: primary astrocyte cultures from normal mouse brains, five days exposure, mean of triplicate experiments, read-out: Mean IC50 ± SD, Normal astrocytes
Text: as §1

LN18 = test: MTT cell viability assay, LN18 glioma cells; conditions: human glioma cell line LN18, five days exposure, mean of triplicate experiments, read-out: Mean IC50 ± SD, LN18
Text: as §1

A172 = test: MTT cell viability assay, A172 glioma cells; conditions: human glioma cell line A172, five days exposure, mean of triplicate experiments, read-out: Mean IC50 ± SD, A172
Text: as §1

SMILES	IC50 (U87; U-87 MG, 120 h) [µM]	IC50 (T98G; 120 h) [µM]	IC50 (Normal astrocytes; 120 h) [µM]	IC50 (LN18; LN-18, 120 h) [µM]	IC50 (A172; A 172, 120 h) [µM]	IC50 (U87) [µM]	IC50 (T98G) [µM]	IC50 (Normal astrocytes) [µM]	IC50 (LN18) [µM]	IC50 (A172) [µM]
COc1ccncc1-c1ccc(CC2NCCc3c(OC)ccc(OC)c32)cc1 (stereo not shown) [EDL-358 (11), 5,8-dimethoxy-1-(4-(4-methoxypyridin-3-yl)benzyl)-1,2,3,4-tetrahydroisoquinoline dihydrochloride]	16.2	13.8	24.6 ± 0.79	13.7	8.25	–	–	–	–	–
COc1ccncc1-c1ccc(CCC2NCCc3c(OC)ccc(OC)c32)cc1 (stereo not shown) [EDL-360 (12), 5,8-dimethoxy-1-(4-(4-methoxypyridin-3-yl)phenethyl)-1,2,3,4-tetrahydroisoquinoline dihydrochloride]	8.4	10.4	19.7 ± 2.44	5.42	5.6	–	–	–	–	–
COc1ccncc1-c1ccc(CCCC2NCCc3c(OC)ccc(OC)c32)cc1 (stereo not shown) [EDL-361 (13), 5,8-dimethoxy-1-(3-(4-(4-methoxypyridin-3-yl)phenyl)propyl)-1,2,3,4-tetrahydroisoquinoline dihydrochloride]	10.5	14.8 ± 0.68	11.9 ± 0.56	11.7 ± 0.17	15.2 ± 0.98	–	–	–	–	–
COc1cc2c(cc1OC)C(Cc1ccc(-c3cnccc3OC)cc1)NCC2 (stereo not shown) [EDL-291 (9)]	–	–	–	–	–	66.5 ± 1.12	59.5 ± 7.61	51.1 ± 1.38	37	41.2
Cn1nnc2c(C(N)=O)ncn2c1=O [TMZ, reference compound]	–	–	–	–	–	49.1 ± 5.15	571 ± 50.4	> 1000	392 ± 77.2	65.3 ± 12
